Broadly, the EC50 is the concentration at which the effect is half-maximal.

Consider 14 compounds from patent US9040532B2, “Alpha adrenergic receptor modulators” (Allergan, Inc., priority 2009, dated 2015).

The target in test [1] is T1, Alpha 2B (Homo sapiens, UniProt P18089).
T1 sequence (P18089 1-450): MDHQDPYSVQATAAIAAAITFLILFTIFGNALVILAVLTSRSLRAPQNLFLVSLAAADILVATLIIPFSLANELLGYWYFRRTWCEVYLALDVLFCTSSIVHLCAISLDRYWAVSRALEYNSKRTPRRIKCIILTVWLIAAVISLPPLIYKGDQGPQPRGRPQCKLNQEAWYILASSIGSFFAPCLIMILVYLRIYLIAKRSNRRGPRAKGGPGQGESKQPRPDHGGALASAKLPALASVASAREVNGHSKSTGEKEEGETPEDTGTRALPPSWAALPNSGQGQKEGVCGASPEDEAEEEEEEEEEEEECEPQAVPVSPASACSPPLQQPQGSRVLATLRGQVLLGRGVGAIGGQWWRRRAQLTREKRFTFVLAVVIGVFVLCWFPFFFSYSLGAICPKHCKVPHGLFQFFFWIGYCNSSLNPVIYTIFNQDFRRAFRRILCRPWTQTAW
The test is described as follows: FLIPR assay, intracellular Ca2+ mobilization, alpha 2B. The settings on record: FLIPR; for EC50: agonist, read-out: Alpha 2B Potency (EC50); for Alpha 2B relative efficacy compared to a standard full agonist: value in parentheses. Format: cell-based. The procedure: (§1) Cells are loaded into a plate reader with a Ca^2+ dye indicator and incubated with various compounds. This assay is adequate for monitoring the intracellular Ca^2+ mobilization from fluorescent readings to evaluate receptor agonists.

Test [2] concerns the target T2, Alpha 2C (Homo sapiens, UniProt P18825).
T2 sequence (P18825 1-462): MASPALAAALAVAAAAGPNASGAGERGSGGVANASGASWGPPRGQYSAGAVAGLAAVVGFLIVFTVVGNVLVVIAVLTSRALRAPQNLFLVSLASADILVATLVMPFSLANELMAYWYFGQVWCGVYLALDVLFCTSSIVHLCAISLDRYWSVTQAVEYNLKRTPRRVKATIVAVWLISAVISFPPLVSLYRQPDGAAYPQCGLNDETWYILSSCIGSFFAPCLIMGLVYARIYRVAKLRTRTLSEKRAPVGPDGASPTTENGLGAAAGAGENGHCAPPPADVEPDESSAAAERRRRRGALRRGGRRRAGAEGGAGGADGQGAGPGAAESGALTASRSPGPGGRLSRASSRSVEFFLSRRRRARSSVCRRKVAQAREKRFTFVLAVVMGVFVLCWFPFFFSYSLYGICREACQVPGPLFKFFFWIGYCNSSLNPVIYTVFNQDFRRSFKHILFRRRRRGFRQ
The test is described as follows: FLIPR assay, intracellular Ca2+ mobilization, alpha 2C. It is filed as cell-based. The settings on record: for EC50: agonist, read-out: Alpha 2C Potency (EC50); for Alpha 2C relative efficacy compared to a standard full agonist: value in parentheses. As to the method: as §1
(Calcium flux is commonly read through the fluorescence of an indicator in the cells.)

Test [3] concerns the target T3, Alpha 2A (Homo sapiens, UniProt P08913).
T3 sequence (P08913 1-465): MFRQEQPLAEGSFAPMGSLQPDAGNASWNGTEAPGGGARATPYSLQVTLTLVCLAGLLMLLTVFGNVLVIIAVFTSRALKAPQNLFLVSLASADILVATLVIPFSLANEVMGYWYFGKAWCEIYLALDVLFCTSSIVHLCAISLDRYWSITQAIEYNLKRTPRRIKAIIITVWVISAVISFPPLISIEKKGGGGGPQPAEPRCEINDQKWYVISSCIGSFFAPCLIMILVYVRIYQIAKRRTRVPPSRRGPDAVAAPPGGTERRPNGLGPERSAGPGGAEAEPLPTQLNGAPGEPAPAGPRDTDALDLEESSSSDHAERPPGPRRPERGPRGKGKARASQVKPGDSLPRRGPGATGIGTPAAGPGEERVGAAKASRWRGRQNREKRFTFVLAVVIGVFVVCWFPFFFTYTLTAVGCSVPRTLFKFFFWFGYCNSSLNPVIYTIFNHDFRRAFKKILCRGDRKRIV
Description: FLIPR assay, intracellular Ca2+ mobilization, alpha 2A. It is filed as cell-based. As to conditions: for EC50: agonist, read-out: Alpha 2A Potency (EC50); for Alpha 2A relative efficacy compared to a standard full agonist: value in parentheses. The procedure:
The compounds described herein were tested for alpha adrenergic activity using a Fluorometric Imaging plate Reader (FLIPR) assay (Princen et al., 2003, Cytometry Part A. 51, pp. 35-45). Cells are loaded into a plate reader with a Ca^2+ dye indicator and incubated with various compounds. This assay is adequate for monitoring the intracellular Ca^2+ mobilization from fluorescent readings to evaluate receptor agonists. […] The compounds described herein activate alpha adrenergic receptors.

Test [4] deals with Intraoccular Pressure (IOP). The test is described as follows: In-vivo intraocular pressure compound screening. The settings on record: normotensive male Dutch-Belted rabbits, single 50 μl topical drop, 0.15% or 1.0%; for IOP lowering: IOP 0.5-8 h vs 0 h baseline. The procedure: The experimental animals used, were Normotensive male Dutch-Belted rabbits over 6 months in age (n=4/compound/dose screened). A single drop (50 μl) of the drug formulation, which yields 0.15% or 1.0% of the active metabolite was administered topically by pipette onto the right eye (treated eye) at approximately 0700 hours. Intraoccular Pressure (IOP) of the rabbits (treated and untreated eyes) was measured 0 hours before and at 0.5, 1, 2, 3, 4, 6 and 8 hours after topical eyedrop administration. IOP at the time of eyedrop administration (0 hours) was used as a baseline value. Prior to the tonometric measurements, 0.05% proparacaine (50 μl) was administered to each eye. Tonometric IOP measurements were obtained with a Mentor Pneumontonmeter. Additionally, all studies were masked. At least 1 week of wash-out time was allowed for each rabbit between dosings. All animals were examined for sedation, ocular irritation, and changes in pupil diameter throughout the course of the experiments. […] In this assay, Compound 10 lowered IOP about 35%.

Test [5] concerns the target Alpha 2B (Homo sapiens, UniProt P18089). The test is described as follows: FLIPR assay, intracellular Ca2+ mobilization, alpha 2B. It is filed as cell-based. As to the method:
as §1

Like-named read-outs stand apart in the source and are kept apart here. Bounds are passed on as bounds.

For the compound `Cc1cccc2c1CC[C@@H]2NC1=NCCC1` [Compound 37, N-[(1S)-4-Methyl-2,3-dihydro-1H-inden-1-yl]-3,4-dihydro-2H-pyrrol-5-amine], in test [1], the EC50 came to 21 nM and the “Alpha 2B relative efficacy compared to a standard full agonist” value (shortened to “Alpha 2B relative efficacy”) is on record as “(0.9)”. In test [2], the EC50 is 58 nM and the “Alpha 2C relative efficacy compared to a standard full agonist” value (shortened to “Alpha 2C relative efficacy”) is recorded as “(0.94)”. In addition, in test [3], the concentration for a half-maximal effect (EC50) turned out to be 272 nM and the “Alpha 2A relative efficacy compared to a standard full agonist” value (from here on “Alpha 2A relative efficacy”) is on record as “(0.43)”.
On to `c1cc(NC2=NCCC2)c2cc[nH]c2c1` [Compound 25, N-(3,4-Dihydro-2H-pyrrol-5-yl)-1H-indol-4-amine], for which, in test [1], the 50% effective concentration (EC50) came to 152 nM and the “Alpha 2B relative efficacy” value is on record as “(0.42)”. In test [2], the EC50 was less than 10 nM and the “Alpha 2C relative efficacy” value is listed as “(0.99)”. In addition, in test [3], the half-maximal effective concentration (EC50) came to 115 nM and the “Alpha 2A relative efficacy” value is recorded as “(0.7)”.
Regarding `Clc1c(NC2=NCCC2)ccc2[nH]cnc12` [Compound 11, 4-Chloro-N-(3,4-dihydro-2H-pyrrol-5-yl)-1H-benzimidazol-5-amine], in test [1], the EC50 turned out to be 513 nM and the “Alpha 2B relative efficacy” value is listed as “(0.69)”. The “IOP lowering” value in test [4] is reported as “show potential in lowering IOP”. Also, in test [2], the EC50 amounted to 35 nM and the “Alpha 2C relative efficacy” value is “(1)”. Besides, in test [3], the 50% effective concentration (EC50) turned out to be 216 nM and the “Alpha 2A relative efficacy” value is reported as “(0.98)”.
In turn, `c1cc2c(cc1NC1=NCCC1)CCCC2` had a concentration giving a half-maximal response (EC50) in test [5] of 293 nM.
`Clc1c(NC2=NCCC2)ccc2cccnc12` [Compound 9, 8-Chloro-N-(3,4-dihydro-2H-pyrrol-5-yl)quinolin-7-amine]: in test [1], the 50% effective concentration (EC50) stood at 1050 nM and the “Alpha 2B relative efficacy” value is “(0.38)”. The “IOP lowering” value in test [4] is listed as “show potential in lowering IOP”. Further, in test [2], the half-maximal effective concentration (EC50) was determined as 218 nM and the “Alpha 2C relative efficacy” value is reported as “(0.97)”. In test [3], the EC50 stood at 429 nM and the “Alpha 2A relative efficacy” value is listed as “(1)”.
`c1ccc2c(NC3=NCCC3)cccc2c1` [Compound 1, N-1-Naphthyl-3,4-dihydro-2H-pyrrol-5-amine]: in test [1], the EC50 turned out to be 30 nM and the “Alpha 2B relative efficacy” value is recorded as “(0.16)”. Besides, in test [2], the EC50 came out at 5 nM and the “Alpha 2C relative efficacy” value is given as “(0.88)”. Besides, in test [3], the EC50 worked out at 61 nM and the “Alpha 2A relative efficacy” value was “(0.81)”.
Turning to `Cc1c(NC2=NCCC2)ccc2[nH]cnc12` [Compound 12, N-(3,4-dihydro-2H-pyrrol-5-yl)-4-methyl-1H-benzimidazol-5-amine], in test [1], the EC50 stood at 510 nM and the “Alpha 2B relative efficacy” value is on record as “(0.86)”. Besides, the “IOP lowering” value in test [4] is reported as “show potential in lowering IOP”. In test [2], the EC50 came out at 58 nM and the “Alpha 2C relative efficacy” value is listed as “(1)”. In addition, in test [3], the EC50 amounted to 203 nM and the “Alpha 2A relative efficacy” value is “(1)”.
`Cc1c(NC2=NCCC2)ccc2nccnc12` [Compound 27, N-(3,4-Dihydro-2H-pyrrol-5-yl)-5-methylquinoxalin-6-amine]: the “IOP lowering” value in test [4] is listed as “show potential in lowering IOP”. Moreover, in test [2], the EC50 came to 16 nM and the “Alpha 2C relative efficacy” value was “(0.9)”. In test [3], the EC50 turned out to be 121 nM and the “Alpha 2A relative efficacy” value was “(0.89)”.
For `Brc1c(NC2=NCCC2)ccc2scnc12` [Compound 31, 4-Bromo-N-(3,4-dihydro-2H-pyrrol-5-yl)-1,3-benzothiazol-5-amine], in test [1], the EC50 worked out at 117 nM and the “Alpha 2B relative efficacy” value is “(.76)”. Also, in test [2], the half-maximal effective concentration (EC50) is 25 nM and the “Alpha 2C relative efficacy” value is “(.92)”. In addition, in test [3], the EC50 turned out to be 96 nM and the “Alpha 2A relative efficacy” value was “(.98)”.
Take `Cc1ccc2ccccc2c1NC1=NCCC1` [Compound 2, N-(2-Methyl-1-naphthyl)-3,4-dihydro-2H-pyrrol-5-amine]: in test [1], the concentration for a half-maximal effect (EC50) was 145 nM and the “Alpha 2B relative efficacy” value is “(0.18)”. Moreover, in test [2], the EC50 was determined as 368 nM and the “Alpha 2C relative efficacy” value is reported as “(0.85)”. In test [3], the EC50 stood at 733 nM and the “Alpha 2A relative efficacy” value was “(0.61)”.
Regarding `Cc1c(NC2=NCCC2)ccc2c1NCCO2` [Compound 36, N-(3,4-Dihydro-2H-pyrrol-5-yl)-5-methyl-3,4-dihydro-2H-1,4-benzoxazin-6-amine], in test [1], the 50% effective concentration (EC50) was 579 nM and the “Alpha 2B relative efficacy” value is given as “(0.77)”. In addition, in test [2], the concentration giving a half-maximal response (EC50) is 327 nM and the “Alpha 2C relative efficacy” value is on record as “(0.87)”. Besides, in test [3], the concentration for a half-maximal effect (EC50) was determined as 583 nM and the “Alpha 2A relative efficacy” value is reported as “(0.68)”.
Take `Brc1c(NC2=NCCC2)ccc2[nH]cnc12` [Compound 10, 4-Bromo-N-(3,4-dihydro-2H-pyrrol-5-yl)-1H-benzimidazol-5-amine]: in test [1], the EC50 stood at 90 nM and the “Alpha 2B relative efficacy” value is reported as “(0.76)”. In test [4], the “IOP lowering” value was “show potential in lowering IOP”. Also, in test [4] (vs 0 h baseline), the IOP lowered result is “about 35%”. Besides, in test [2], the 50% effective concentration (EC50) worked out at 1.5 nM and the “Alpha 2C relative efficacy” value is “(0.94)”. Moreover, in test [3], the EC50 is 3 nM and the “Alpha 2A relative efficacy” value was “(1)”.
Take `Cc1c(NC2=NCCC2)ccc2cccnc12` [Compound 29, N-(3,4-Dihydro-2H-pyrrol-5-yl)-8-methylquinolin-7-amine]: in test [1], the EC50 was determined as 80 nM and the “Alpha 2B relative efficacy” value was “(0.2)”. In addition, in test [4], the “IOP lowering” value was “show potential in lowering IOP”. For the same compound, in test [2], the EC50 is less than 1 nM and the “Alpha 2C relative efficacy” value is “(1)”. In test [3], the EC50 stood at 6 nM and the “Alpha 2A relative efficacy” value is “(0.98)”.
In the case of `c1cc2cc(/N=C3\CCCN3)cnc2[nH]1` [Compound 26, N-[(2E)-Pyrrolidin-2-ylidene]-1H-pyrrolo[2,3-b]pyridin-5-amine], in test [1], the 50% effective concentration (EC50) was 17 nM and the “Alpha 2B relative efficacy” value is listed as “(0.96)”. Besides, in test [2], the EC50 came to 6 nM and the “Alpha 2C relative efficacy” value was “(0.97)”. Also, in test [3], the EC50 stood at 118 nM and the “Alpha 2A relative efficacy” value is “(0.85)”.
